Experimental data as given in US20130095512A1, “DEVICE FOR SORTING, CLASSIFYING, AND ASSAYING PARTITION BEHAVIOR OF CELL MEMBRANE BIOMOLECULES AND METHODS BASED THEREON” (Cornell University, priority 2010, published 2013).

Assays:
Assay type in all cases: physicochemical
[1] = Lipid diffusion measurements by fluorescence recovery after photobleaching (FRAP) in supported lipid bilayers
Protocol: Lipid Diffusion Measurements. Diffusion coefficients of all biomolecule targets in each phase were determined by fluorescence recovery after photobleaching (FRAP). To measure the diffusion coefficient and mobile fraction of the biomolecule in a supported bilayer, liposomes of the same composition used in experiments were prepared with 0.1% of either BODIPY DHPE or GM1. 0.5 mg/ml liposomes were incubated in a PDMS well attached to a piranha cleaned slide. Lipid vesicles were allowed to incubate for 5 minutes, before being rinsed with buffer for one minute. In the case of the POPC-rich phase bilayer, the entire process is at room temperature. In the case of the raft phase bilayer, the prepared vesicle solutions were heated to 65° C. (a temperature above the miscibility transition temperature of the lipid mixture). The warm vesicle solutions were added to wells heated to 65° C. and were later rinsed with the buffer at 65° C. Following the formation of the raft phase bilayer, the heated sample was gently cooled down to room temperature prior measuring the diffusion coefficient.
To aid in focusing on the plane of the bilayer on the microscope, the bilayer was scratched with a dissection tool to remove a thin line of bilayer. Following the scratching step, the bilayer was rinsed again for one minute with buffer to remove any lipids in the bulk that were removed by scratching. A 20 μm diameter spot in the supported lipid bilayer was bleached with a laser for 200 ms. The recovery of the photobleached spot was recorded for 10 minutes for the POPC-rich phase sample and one hour for the raft phase sample. The fluorescence intensity of the bleached spot was determined after background subtraction and normalization for each image. The recovery data was fit using the method of Soumpasis (Zheng Y Z, Foster L J. Biochemical and Proteomic Approaches for the Study of Membrane Microdomains. Proteomics. 2009; 72:12-22). The diffusion coefficient, D, was then calculated using the following equation: D=w^2/4t1/2, where w is the full width at half-maximum of the Gaussian profile of the focused beam. The average diffusion coefficient and mobile fractions were determined from three separate samples of each sample and are listed in Table 2. These values are in line with numerous reports of lipid diffusion in supported bilayers.

[2] = Partitioning kinetics of membrane biomolecules in patterned two-phase coexistent supported lipid bilayers in a microfluidic channel (BPD); settings: for K (eq) partition coefficient: concentration in raft phase over POPC-rich phase from fluorescence intensity after equilibrating 2 hrs; for partitioning between raft phase and POPC-rich phase at equilibrium: flow stopped, equilibrated for 2 hrs; for k+ (association rate constant): from POPC-rich phase (70/20/10 POPC/PSM/Chol) to raft phase, first order, initial slope of NR-α plot; for k− (dissociation rate constant): from raft phase to POPC-rich phase, reversed flow after 2 hrs equilibration; for K (=k+/k−) partition coefficient: ratio of association/dissociation kinetic parameters
Excerpt: Preparation of patterned two-phase coexistent lipid bilayers in a microfluidic device. Supported lipid bilayers (SLBs) are commonly formed by the rupture and self-assembly of large unilamellar lipid vesicles in solution onto glass (Brian, A. A.; McConnell, H. M. Proc. Natl. Acad. Sci. USA 1984, 81, 6159; Johnson, J. M.; Ha, T.; Chu, S.; Boxer, S. G. Biophysical Journal 2002, 83, 3371) or other oxidized supports (Richter, R. P.; Borat, R.; Brisson, A. R. Langmuir 2006, 22, 3497), as illustrated in FIG. 17a. A bilayer is formed during laminar flow conditions instead of under stagnant incubation. Laminar flow is an advantage for patterning heterogeneous bilayers in microfluidic channels because reagents follow streamlines with minimal mixing (Kam, L.; Boxer, S. G. Journal of the American Chemical Society 2000, 122, 12901). Thus, lipid vesicles of different compositions can be sent through the channel on different streamlines and upon rupture will form contiguous, parallel bilayers of different compositions with stable interfaces, if the compositions are chosen so that they are phase stable.
Formation of contiguous patterned membrane and loading and transport of membrane-bound biomolecules. […] A contiguous lipid membrane is formed with POPC-rich phase (70/20/10 molar ratio of POPC/PSM/Chol), raft phase (60/40 molar ratio of PSM/Chol), and the membrane loaded with 1 mol % of Alexa-594 head-labeled GM1 and 1 mol % of head-labeled BODIPY-DHPE doped in the POPC-rich phase.
Partitioning kinetic measurements by monitoring species' concentrations in the raft phase with time. […] The partitioning assay was carried out in three stages: association stage, equilibrium stage, and dissociation stage (FIGS. 13a-c). The experimental procedure and analyses are somewhat analogous to the measurement of adsorption/desorption binding kinetics by surface plasmon resonance (SPR) (Wegner, G. J.; Wark, A. W.; Lee, H. J.; Codner, E.; Saeki, T.; Fang, S.; Corn, R. M. Analytical Chemistry 2004, 76, 5677), except here there is a 2-D planar geometry and observing association/dissociation kinetics of membrane-bound biomolecules to/from a lipid membrane phase along an interface. To obtain association kinetics from POPC-rich phase to raft phase, target species in the POPC-rich phase were brought to a pristine raft phase and the amount entering into the raft phase in the control volume was monitored with time (FIG. 13a, stage 1). After most of the species initially loaded in the channel entered into the main partitioning channel, the next step was to stop the convective flow and wait until the system equilibrated (FIG. 13a, stage 2). Equilibration was confirmed when the concentration profile no longer changed across the channel. Finally, to obtain dissociation kinetics, the net amount of species leaving the raft phase was monitored when the hydrodynamic flow was reversed and fresh POPC-rich phase membrane could be monitored for the re-association of molecules now moving from the raft phase back into the POPC-rich phase (FIG. 13a, stage 3). Three different molecules were tested: Alex594-head-labeled GM1, BODIPY-tail-labeled GM1, and head-labeled BODIPY-DHPE.
Theory of partitioning kinetic analyses. The association/dissociation kinetics of fluorescently-labeled species was analyzed into/from the raft phase using a mass-balance approach. A control volume used for the mass balance is illustrated in FIG. 14. The accumulation of species in the raft phase over time can be represented as:
Association kinetic analysis. To obtain the association kinetic information from the POPC-rich phase to the raft phase, the experiment was operated in such a way so that only the association term, r+, is important and the dissociation term and the convective flow rate terms can be neglected in Equation 1. At the beginning of the experiment, a hydrodynamic force was provided to move the species into the control volume (the white box in FIG. 14). […]

[3] = Stamped patterned bilayers, electric field-induced migration and partitioning into raft regions; settings: stamped raft regions in fluid phase bilayer, FIG. 3
Excerpt: In one embodiment, the separation bilayer is patterned with multiple phases (raft and non-raft) that interact with species differentially to effect a separation analogous to a chromatographic separation strategy (FIG. 3). Here differently partitioning behavior serves to change the mobility of one species relative to the other such that they become separated. FIG. 3 illustrates how patterned bilayers of a BPD can be made and used for separation purposes. In one embodiment of the method for making a BPD, the steps can comprise: (A) Forming a bilayer via vesicle fusion of one composition, then (B) selectively remove by stamping regions where the second phase is desired. Back filling with the second vesicles (B). Stamping out a thin section of bilayer where a third vesicle formulation fuses; these vesicles contain the species to be separated (denoted by the mixture of light and dark circles arranged in a thin rectangle). An electric field can then be applied to induce the mixed charged species to migrate through the bilayer and partition as they sample the different regions of the bilayer. […] The GM1 is labeled with Alexa-594, which makes it, and the rafts in which they are located, appear bright.

[4] = Partitioning in the BPD on CTB binding; settings: CTB binds to GM1
Excerpt: βCD-mediated efflux is used to disrupt raft microdomains and stimulate a change in GM1 partitioning. Changes in partitioning of both GM1 and PLAP can also be induced by binding to CTB and/or antibodies (Kahya N, Brown D A, Schwille P. Raft Partitioning and Dynamic Behavior of Human Placental Alkaline Phosphatase in Giant Unilamellar Vesicles. Biochemistry. 2005; 44:7479-89). Antibody binding is known to cause several-fold enrichment in the raft phase of both targets and detection will be straightforward using fluorescence labels or conjugates.

[5] = POPC-rich phase (70/20/10 POPC/PSM/Chol)

Compound	Diffusion coefficient [1, 5]	Diffusion coefficient ([1]; Raft phase (60/40 PSM/Chol))	K (eq) partition coefficient [2]	partitioning between raft phase and POPC-rich phase at equilibrium [2]	k+ (association rate constant) [2]	k− (dissociation rate constant) [2]	K (=k+/k−) partition coefficient [2]	partitioning into raft regions [3]	Diffusion coefficient ([1]; POPC-rich phase)	rate for a molecule to diffuse to the interface ([1]; diffusion coefficient/distance, 1 μm away in the POPC-rich phase, rough estimate)	Diffusion coefficient ([1]; raft phase)	diffusion rate from the interface into the middle of the raft patch ([1]; ~100 nm, raft phase, estimate)	enrichment in the raft phase on CTB binding [4]	rate of the molecule to pass across the interface ([2]; from Table 1)
CCCCCCCCCCCCCCCC(=O)OC[C@H](COP(=O)(O)OCCNC(=O)CCc1ccc2n1[B-](F)(F)[N+]1=C(C)C=C(C)C1=C2)OC(=O)CCCCCCCCCCCCCCC.CCN(CC)CC [Head-labeled BODIPY-DHPE, N-(4,4-difluoro-5,7-dimethyl-4-bora-3a,4a-diaza-s-indacene-3-propionyl)-1,2-dihexadecanoyl-sn-glycero-3-phosphoethanolamine, triethylammonium salt]	0.63 μm^2/s	0.05 μm^2/s	0.6	most of BODIPY-DHPE remains in the POPC-rich phase	0.57 ± 0.08 μm/min	0.98 ± 0.04 μm/min	0.58	exclusion of BODIPY DHPE lipids from rafts regions						
bovine brain asialoganglioside-GM1 labeled with Alexa Fluor® 594 hydrazide [Head-labeled GM1]	0.77 μm^2/s	0.06 μm^2/s	1.96	Most of GM1 partitions to the raft phase	1.53 ± 0.03 μm/min	0.85 ± 0.03 μm/min	1.8	preferential partitioning of GM1 lipids into raft regions	0.77 μm^2/sec	0.77 μm/sec	0.06 μm^2/sec	0.6 μm/sec	enrichment was observed	~0.025 µm/s
BODIPY®FL C5-ganglioside GM1 [Tail-labeled GM1]	0.82 μm^2/s	0.08 μm^2/s	0.75		0.64 ± 0.07 μm/min	0.72 ± 0.05 μm/min	0.89							
